# Data from patent US9670173B2, “Dicarboxylic acid compound” (DAIICHI SANKYO COMPANY, LIMITED, priority 2013, dated 2017).
# Tested on: male SD rats
# Test: Rat 33P phosphate oral challenge test (intestinal phosphate absorption suppression test)
# Assay type: in vivo
# Conditions: fasted, 30 mg/kg forcible oral administration, 33P phosphate solution given 30 min later, serum radioactivity AUC0-60min versus control group
# Experimental: (Test Example) Rat ^33P Phosphate Oral Challenge Test (Intestinal Phosphate Absorption Suppression Test)
# Using male SD rats (5-7 week old) that had been fasted on the previous day, the compound described in Examples was suspended or dissolved in a solvent such as 0.5% methyl cellulose (3-6 mg/mL), and the thus obtained solution was administered to each rat at a dose of 30 mg/kg by a forcible oral administration. On the other hand, regarding a control group, the solvent was administered to each rat at a dose of 5 mL/kg. Thirty minutes after the administration, a ^33P phosphate solution (8.3 mM NaH2PO4, 0.35 MBq/mL) was administered to the rats at a dose of 7.2 mL/kg by a forcible oral administration. Then, 15, 30, 60, and 120 minutes after the administration, blood was collected from the jugular vein of each rat under anesthesia with isoflurane. The radioactivity in 50 μL of serum was measured using a liquid scintillation counter, and the AUC0-60min was then calculated from the radioactivity value. The obtained value was defined as an amount of phosphate absorbed. The phosphate absorption-inhibiting activity of the compound was calculated according to the following expression. Phosphate absorption-inhibiting activity (%)=[[…]the amount of phosphate absorbed of the control group]×100
row,SMILES,Phosphorus absorption-inhibiting activity (%)
1,"CCN([C@H]1CC[C@H](C(=O)O)CC1)S(=O)(=O)c1cccc(C(=O)Nc2ccc(Br)cc2C(=O)Nc2ccc(CCc3ccc(C(=O)O)cc3)cc2)c1 [Example 4, Dipotassium 4-[2-(4-{[5-bromo-2-({3-[(trans-4-carboxylatocyclohexyl)(ethyl)sulfamoyl]benzoyl}amino)benzoyl]amino}phenyl)ethyl]benzoate]",42
2,"CCN([C@H]1CC[C@H](C(=O)[O-])CC1)S(=O)(=O)c1cccc(C(=O)Nc2ccc(N3CCCC3)cc2C(=O)Nc2ccc(CCc3ccc(C(=O)[O-])cc3)cc2)c1.[K+].[K+] [Example 10, Dipotassium 4-[2-(4-{[2-({3-[(trans-4-carboxylatocyclohexyl)(ethyl)sulfamoyl]benzoyl}amino)-5-(pyrrolidin-1-yl)benzoyl]amino}phenyl)ethyl]benzoate]",53
3,"CCN([C@H]1CC[C@H](C(=O)O)CC1)S(=O)(=O)c1cccc(C(=O)Nc2ccc(N3CCCCC3)cc2C(=O)Nc2ccc(CCc3ccc(C(=O)O)cc3)cc2)c1 [Example 12, Dipotassium 4-[2-(4-{[2-({3-[(trans-4-carboxylatocyclohexyl)(ethyl)sulfamoyl]benzoyl}amino)-5-(piperidin-1-yl)benzoyl]amino}phenyl)ethyl]benzoate]",79
4,"CCN(CC)c1ccc(NC(=O)c2cccc(S(=O)(=O)N(CC)[C@H]3CC[C@H](C(=O)O)CC3)c2)c(C(=O)Nc2ccc(CCc3ccc(C(=O)O)cc3)cc2)c1 [Example 14, Dipotassium 4-[2-(4-{[2-({3-[(trans-4-carboxylatocyclohexyl)(ethyl)sulfamoyl]benzoyl}amino)-5-(diethylamino)benzoyl]amino}phenyl)ethyl]benzoate]",76
5,"CCN([C@H]1CC[C@H](C(=O)[O-])CC1)S(=O)(=O)c1cccc(C(=O)Nc2ccc(OCC3CC3)cc2C(=O)Nc2ccc(CCc3ccc(C(=O)[O-])cc3)cc2)c1.[K+].[K+] [Example 15, Dipotassium 4-[2-(4-{[2-({3-[(trans-4-carboxylatocyclohexyl)(ethyl)sulfamoyl]benzoyl}amino)-5-(cyclopropylmethoxy)benzoyl]amino}phenyl)ethyl]benzoate]",82
6,"CCN([C@H]1CC[C@@H](C(=O)O)CC1)S(=O)(=O)c1cccc(C(=O)Nc2ccc(N3CCCCC3)cc2C(=O)Nc2ccc(CCc3ccc(C(=O)O)cc3)cc2)c1 [Example 26, Dipotassium 4-[2-(4-{[2-({3-[(cis-4-carboxylatocyclohexyl)(ethyl)sulfamoyl]benzoyl}amino)-5-(piperidin-1-yl)benzoyl]amino}phenyl)ethyl]benzoate]",60
7,"O=C([O-])c1ccc(CCc2ccc(NC(=O)c3cc(N4CCCCC4)ccc3NC(=O)c3cccc(S(=O)(=O)N(C4CC4)[C@H]4CC[C@H](C(=O)[O-])CC4)c3)cc2)cc1.[K+].[K+] [Example 27, Dipotassium 4-[2-(4-{[2-({3-[(trans-4-carboxylatocyclohexyl)(cyclopropyl)sulfamoyl]benzoyl}amino)-5-(piperidin-1-yl)benzoyl]amino}phenyl)ethyl]benzoate]",57
8,"CCN([C@H]1CC[C@H](C(=O)[O-])CC1)S(=O)(=O)c1cccc(C(=O)Nc2ccc(N3CCCCC3)cc2C(=O)Nc2ccc(CCc3ccc(C(=O)[O-])cc3)cc2)c1.[Na+].[Na+] [Example 28, Disodium 4-[2-(4-{[2-({3-[(trans-4-carboxylatocyclohexyl)(ethyl)sulfamoyl]benzoyl}amino)-5-(piperidin-1-yl)benzoyl]amino}phenyl)ethyl]benzoate]",60
9,"CCN(CC)c1ccc(NC(=O)c2cccc(S(=O)(=O)N(CC)[C@H]3CC[C@H](C(=O)[O-])CC3)c2)c(C(=O)Nc2ccc(CCc3ccc(C(=O)[O-])cc3)cc2)c1.[Na+].[Na+] [Example 29, Disodium 4-[2-(4-{[2-({3-[(trans-4-carboxylatocyclohexyl)(ethyl)sulfamoyl]benzoyl}amino)-5-(diethylamino)benzoyl]amino}phenyl)ethyl]benzoate]",72
10,"CCN([C@H]1CC[C@H](C(=O)O)CC1)S(=O)(=O)c1cccc(C(=O)Nc2ccc(OCC3CC3)cc2C(=O)Nc2ccc(CCc3ccc(C(=O)O)cc3)cc2)c1 [Example 30, Disodium 4-[2-(4-{[2-({3-[(trans-4-carboxylatocyclohexyl)(ethyl)sulfamoyl]benzoyl}amino)-5-(cyclopropylmethoxy)benzoyl]amino}phenyl)ethyl]benzoate]",69
